Experiments:
EDN1 = EDN1 in HUVEC supernatants by ELISA; format: cell-based, human; conditions: vitronectin-coated dishes
Procedure: (§1) Since secreted biomarkers are relevant, the individual candidates were analysed in supernatants of integrin-inhibitor treated cells. HUVEC were treated either DI-17E6 or cilengitide. After different times, culture supernatants were collected and analysed for different biomarker candidates by Western blotting, ELISA or Luminex. Drug-induced biomarker regulation was evaluated in comparison to control cells.
Culture supernatants were collected analysed for EDN1 by ELISA. […] B) Regulation of EDN1 in response to cilengitide (FIG. 8).
(§2) HUVECs were cultured o/n in vitronectin-coated dishes and incubated with different concentration of Sutent or Sorafenib for 6 h to 48 h. Culture supernatants were collected analysed for EDN1 by ELISA. A) Regulation of EDN1 in response to Sutent. B) Regulation of EDN1 in response to Sorafenib (FIG. 11).

IL-8 = IL-8 in HUVEC supernatants by Luminex; format: cell-based, human; conditions: vitronectin-coated dishes
Procedure: as §1
Culture supernatants were collected analysed for IL-8 by Luminex. […] B) Regulation of IL-8 in response to cilengitide (FIG. 6).
as §2, with “IL-8” for “EDN1”, “Luminex.” for “ELISA.”, “12).” for “11).”

[1] = phase III, cytokine-refractory advanced renal carcinoma patients; cited from earlier work
STC-1 = STC-1 protein in HUVEC supernatants by Western blotting; format: cell-based, human; conditions: vitronectin-coated dishes
Procedure: as §1
Culture supernatants were collected analysed for STC-1 by Western blotting. […] B) Regulation of STC-1 in response to cilengitide (FIG. 4).
as §2, with “STC-1” for “EDN1”, “Western blotting.” for “ELISA.”, “10).” for “11).”

[2] = phase II trial; cited from earlier work
[3] = test system: Xenograft models of colon, breast, and non-small cell lung cancer (NSCLC); conditions: cited from earlier work
PDGF-BB = PDGF-BB in HUVEC supernatants by ELISA; format: cell-based, human; conditions: vitronectin-coated dishes, 6 h to 72 h
Procedure: as §1
Culture supernatants were collected analysed for PDGF-BB by ELISA. […] B) Regulation of PDFG-BB in response to cilengitide (FIG. 7).

ERK1/2 = assay: Western blot of integrin signalling in HUVEC plated on vitronectin: MAPK (ERK1/2); format: cell-based, human; conditions: for phosphorylation of MAPK: HUVEC, Western blot, following treatment
Procedure: (§3) To identify biomarkers associated with treatment, HUVEC were treated with cilengitide or DI-17E6. […] Gene expression profiles were generated from experiments with each condition being tested in triplicates. For this, RNA was extracted from treated and control cells and hybridized to genome-wide Affymetrix oligonucleotide microarrays to generate gene expression profiles. After preprocessing with the GCRMA algorithm (Wu Z, Journal American Statistical Association 2004; 99: 909-917), Affymetrix GeneChip data were filtered to exclude probe sets with low variability, low signal or poor probe annotation. Genes were specifically filtered to obtain secreted candidates that might be detectable in body fluids in humans and could be monitored in a non-invasive way in patients. […] Genes which show under the given condition an extraordinary response / response change/responsiveness are underlined.
(§4) Besides growth factor stimulation, integrin-mediated adhesion to the extracellular matrix is important to promote cell proliferation, survival, and migration. Upon integrin ligation a wide range of intracellular signaling events are induced, including activation of Ras, MAPK, FAK, Src, Rac/Rho/cdc42 GTPases. To support survival of endothelial cells during angiogenesis, integrins alpha(V) beta(3)/(5) together with FAK are required for a sustained activation of the MAPK cascade (i.e. ERK1/2). […] After 24 h of treatment, cell lysates were prepared and analysed by Western blotting. Effects on signaling pathways were evaluated by comparing the ratio of phosphorylated to total levels of the respective signaling molecule in order to account for potential effects arising from cell detachment.

HUVEC = assay: Gene expression profiles of HUVEC after drug treatment (Affymetrix microarrays); format: cell-based, human; conditions: drug-treated vs non-treated or control-treated cells, filtered for secreted candidates
Text: Gene expression profiles were generated from experiments with each condition being tested in triplicates. For this, RNA was extracted from treated and control cells and hybridized to genome-wide Affymetrix oligonucleotide microarrays to generate gene expression profiles. After preprocessing with the GCRMA algorithm (Wu Z, Journal American Statistical Association 2004; 99: 909-917), Affymetrix GeneChip data were filtered to exclude probe sets with low variability, low signal or poor probe annotation. Genes were specifically filtered to obtain secreted candidates that might be detectable in body fluids in humans and could be monitored in a non-invasive way in patients.

ADAMTS1 = ADAMTS1 protein in HUVEC supernatants by Western blotting; format: cell-based, human; conditions: vitronectin-coated dishes, 6 h to 72 h, vs control cells
Procedure: as §1
Culture supernatants were collected analysed for ADAMTS1 by Western blotting.
HUVECs were cultured o/n in vitronectin-coated dishes and incubated with different concentration of cilengitide for 6 h to 72 h. Culture supernatants were collected analysed for ADAMTS1 by Western blotting. A) Cilengitide mediated regulation of ADAMTS1 (65 kD and 85 kD). (FIG. 3).

activin A = assay: Activin A in HUVEC supernatants by ELISA; format: cell-based, human; conditions: vitronectin-coated dishes, 6 h to 72 h
Procedure: as §1
Culture supernatants were collected analysed for activin A by ELISA. […] B) Regulation of activin A in response to cilengitide (FIG. 9).

MCP-1 = MCP-1 in HUVEC supernatants by Luminex; format: cell-based, human; conditions: vitronectin-coated dishes, 6 h to 72 h
Procedure: as §1
Culture supernatants were collected analysed for MCP-1 by Luminex. […] B) Regulation of MCP-1 in response to cilengitide (FIG. 5).

FAK = assay: Western blot of integrin signalling in HUVEC plated on vitronectin: FAK; format: cell-based, human; conditions: for phosphorylation of FAK: HUVEC, Western blot, following treatment
Procedure: as §3, §4

IL-6 = assay: Plasma IL-6 by Luminex in monkeys with matrigel plugs; format: in vivo, Cynomolgus monkeys; conditions: DI-17E6-treated vs placebo-treated animals, 6 days
Text: A) Regulation of CRP. B) Regulation of IL-6 (FIG. 14).

CRP = conditions: DI-17E6-treated vs placebo-treated animals, 6 days
Procedure: Absolute concentrations of different proteins were measured by Luminex by comparing to respective standards.
Plasma was collected and analysed for CRP and IL-6 by Luminex. A) Regulation of CRP. B) Regulation of IL-6 (FIG. 14).

[4] = test system: angiogenesis in matrigel plugs; assay: bFGF-induced angiogenesis in matrigel plugs in monkeys (hemoglobin content); format: in vivo, Cynomolgus monkeys; conditions: single i.v. infusion at 100, 30, 10, or 3 mg/kg; after 6 days; 5 μg/mL bFGF
Procedure: In this model, angiogenesis was induced in matrigel plugs by the angiogenic growth factor bFGF. Matrigel plugs containing bFGF were implanted subcutan into the abdomen of healthy Cynomologus monkeys, and the animals were injected with DI-17E6 i.v. at different doses immediately thereafter. Evaluation of angiogenesis was carried out after matrigel implantation by quantification of the hemoglobin content in the matrigel plugs. Each condition was tested in different animals implanted with matrigel plugs.
Angiogenesis was induced in subcutaneous matrigel implants containing 5 μg/mL of bFGF in Cynomolgus monkeys. […] After 6 days, angiogenesis was quantified by measuring the hemoglobin content in the matrigel plugs. * denotes a p-value <0.05 and ** denotes a p-value <0.01 (FIG. 13).

[5] = integrin inhibitors, 6 h to 72 h
[6] = HUVEC on vitronectin, 24 h, DI-17E6 0.01 to 10 μg/mL, cilengitide 0.01 to 10 μM
[7] = integrin inhibitors, 24 h to 72 h

| Molecule | PDGF-BB level in HUVEC supernatants (PDGF-BB) | EDN1 level in HUVEC supernatants (EDN1; [5]) | phosphorylation of MAPK (ERK1/2) | IL-8 level in HUVEC supernatants (IL-8; [5]) | ADAMTS1 protein level in HUVEC supernatants (ADAMTS1) | Activin A level in HUVEC supernatants (activin A) | STC-1 protein level in HUVEC supernatants (STC-1; [7]) | MCP-1 level in HUVEC supernatants (MCP-1) | phosphorylation of FAK (FAK) | other results |
| --- | --- | --- | --- | --- | --- | --- | --- | --- | --- | --- |
| CNC(=O)c1cc(Oc2ccc(NC(=O)Nc3ccc(Cl)c(C(F)(F)F)c3)cc2)ccn1 [Sorafenib] | – | – | – | – | – | – | – | – | – | EDN1 level in HUVEC supernatants (EDN1; kinase inhibitors, 6 h to 48 h): up-regulated; IL-8 level in HUVEC supernatants (IL-8; kinase inhibitors, 6 h to 48 h): reduced protein levels; side effect: diarrhea [1]: 33%; side effect: fatigue [1]: 26%; side effect: hand-foot skin reactions [1]: 27%; side effect: hypertension [1]: 11%; side effect: rash [1]: 34%; STC-1 protein level in HUVEC supernatants (STC-1; kinase inhibitors, 6 h to 48 h): down-regulated; additional patients who experienced tumor shrinkage [2]: 9%; patients who experienced stable disease for at least 4 months [2]: 43%; tumor angiogenesis, as measured by anti-CD31 immunostaining [3]: significant inhibition of tumor angiogenesis |
| CC(C)[C@H]1C(=O)N[C@@H](CCCN=C(N)N)C(=O)NCC(=O)N[C@@H](CC(=O)O)C(=O)N[C@H](Cc2ccccc2)C(=O)N1C [cilengitide, cyclo-(Arg-Gly-Asp-DPhe-NMeVal)] | down-regulated | down-regulated | inhibited | down-regulation | up-regulated | down-regulated | up-regulated | down-regulated | inhibited | activation of ERK1/2 (ratio of phosphorylated to total) (ERK1/2; [6]): blocked activation; Genes down-regulated in response to treatment (RNA level) (HUVEC): INHBA, EDN1, FST, DKK4, BMP4, MCP1, HHIP, NTN4, PHLDB2, PVR, CYR61, AUTS2, MERTK, FSTL3, APLN, PTX3, ANGPTL4, CTGF, SPOCK, IL8, NRG1, DKK3, CD44, BCHE, BDNF, FBXO4, EFEMP1, STC2; Genes up-regulated in response to treatment (RNA level) (HUVEC): ADAMTS 9, DAF, STC1, ADAMTS1, LAMAS, TCN2, SRPX, ADAM15, GUSB, HYAL2, PLAUR, CD40, NOTCH1, ENPP4; activation of FAK (ratio of phosphorylated to total) (FAK; [6]): blocked activation |
| DI-17E6: antibody (CAS No: 1105038-73-0) having the biological characteristics of monoclonal mouse antibody 17E6, inhibits the αv-integrin subunit; improved immunogenicity (antibody, chains of the INN, looked up, V domains shown) VH: QVQLQQSGGELAKPGASVKVSCKASGYTFSSFWMHWVRQAPGQGLEWIGYINPRSGYTEYNEIFRDKATMTTDTSTSTAYMELSSLRSEDTAVYYCASFLGRGAMDYWGQGTTVTVSS VL: DIQMTQSPSSLSASVGDRVTITCRASQDISNYLAWYQQKPGKAPKLLIYYTSKIHSGVPSRFSGSGSGTDYTFTISSLQPEDIATYYCQQGNTFPYTFGQGTKVEIK | down-regulated | down-regulated | inhibited | up-regulated | up-regulated | down-regulated | up-regulated | down-regulated | inhibited | plasma IL-6 (IL-6): up-regulated; plasma CRP (CRP): up-regulated; angiogenesis (hemoglobin content in the matrigel plugs) [4]: blocked the formation of new blood vessel at all doses |

From patent publication US20120004129A1, “BIOMARKERS FOR INHIBITORS WITH ANTI-ANGIOGENIC ACTIVITY” (Merck Patent GmbH, priority 2008, published 2012)
